Where two headings read alike, the source gives them in different places.
Test: Pharmacokinetics study after separate oral administration in rats (HPLC-MS of plasma)
Format: in vivo, Sprague-Dawley rats
Settings: male, Sprague-Dawley, rat, plasma, 50 mg/kg; for Tmax / AUC(0-t) / CL/F / Cmax / MRT last / half-life: po, rat plasma; for Tmax: read-out: Tmax (converted); for CL/F: read-out: CLz/F; for Cmax: read-out: Cmax; for half-life: read-out: t1/2z
Procedure: A total of 15 SPF Sprague-Dawley rats (SD, male, 190–210 g) were provided by Sino-British Sippr/BK Lab Animal Company Ltd. (Shanghai, China). The rats were kept in standard conditions (22–26 °C; 40–60% relative humidity; 12 h light/dark cycle). Throughout the rearing period, the animals had access to food and water ad libitum. Animal experiments were conducted in accordance with the standard ethical guidelines of the Laboratory Animal Management Committee of Jiangsu Province (SYXK (SU) 2016-0011).
Following 1 week of adaptation, the rats were fasted for about 12 h before dosing, with free access to water. […] After administration of the first dose, blood samples were taken from the retro-orbital vein at 0, 5, 15, 30, 60, 90, 120, 180, 240, 360, 480, and 1,440 min and collected in heparinized tubes. The samples were centrifuged at 3,500 rpm for 10 min at 4 °C and the plasma was stored at −80 °C until analysis.
An Agilent 1,200 series HPLC system (Agilent Technologies, Waldbronn, Germany) equipped with a quaternary pump on-line degasser, auto-sampler and column oven, and an SL G1946D quadruple mass spectrometer (Agilent Technologies, Santa Clara, CA, USA) equipped with an electrospray ionization (ESI) source, were used for separation and detection. Data were acquired and analyzed using Agilent ChemStation Software Version A.01.00 (Agilent Technologies, Santa Clara, CA, USA).
The separation was carried out with an Amethyst C18-H column (150 × 4.6 mm, 5 μm, Sepax Technologies, Newark, DE, USA) with a guard column SB-C18 (10 × 4.6 mm, 5 μm, Phenomenex Technologies, Torrance, USA) at a constant temperature of 25 °C.
The mass spectra were acquired using ESI interfaced to a single quadrupole mass spectrometer. The ionization conditions were as follows: drying gas (N2) flow rate of 11 L/min, drying gas temperature of 350 °C, nebulizing gas (N2) pressure of 35 psi, capillary voltage of 3,500 V, quad temperature of 100 °C, and fragment voltage of 110 V. A series of m/z were monitored using a timed program according to the retention times and characteristic ions for the corresponding HPLC-MS peak obtained by scanning from m/z 100–1,000 in the standard sample.
Briefly, an aliquot of plasma sample (100 μL) was spiked with 5% formic acid (10 μL) in centrifuge tube. Subsequently, hydrochloric acid (2 mol/L, 10 μL) and IS solution (960.00 ng/mL, 20 μL) were added. Then ethyl acetate/n-butyl alcohol (1:1 v/v; 1,000 μL) was used to extract the components. The samples were then homogenized by vortex mixing and centrifuged for 10 min at 14,000 rpm. After centrifugation, 800 μL of supernatant was transferred to another centrifuge tube and the sample was evaporated to dryness. The residues were dissolved in 100 μL of methanol and centrifuged for 10 min at 12,000 rpm. 50 μL of the supernatant was transferred to the vial and an aliquot of 5 μL was injected into the HPLC-MS system for analysis.
DAS 2.0 (Chinese Pharmacological Association, Shanghai, China) was used to calculate the pharmacokinetic parameters using the non-compartment model, including the area under curve (AUC), mean residence time (MRT), half-life ( t1/2z), clearance rate (CL), maximum plasma concentration (Cmax), and time (Tmax). All results are expressed as mean ± standard deviation (SD). One way analysis of variance followed by […] was used for comparison of different groups using Graph pad prism 5 software. A p-value of <0.05 was considered statistically significant.

[1] = IQ group (oral IQ 50 mg/kg), labelled substance = analyte, mean of 5 rats
[2] = IQ group: oral IQ 50 mg/kg, mean ± SD, n = 5
[3] = QG group (oral QG 50 mg/kg), labelled substance = analyte, mean of 5 rats
[4] = QG group: oral QG 50 mg/kg, mean ± SD, n = 5
[5] = Qr group (oral Qr 50 mg/kg), labelled substance = analyte, mean of 5 rats
[6] = Qr group: oral Qr 50 mg/kg, mean ± SD, n = 5

## O=c1c(O)c(-c2ccc(O)c(O)c2)oc2cc(O)cc(O)c12 [Qr, Quercetin]
oral, QG group (oral QG 50 mg/kg), 5 min, individual rats NO. 1-5, read-out: Plasma concentrations
  concentration at 5 min: 0 ng/mL
oral, QG group (oral QG 50 mg/kg), 15 min, individual rats NO. 1-5, read-out: Plasma concentrations
  concentration at 15 min: 0 ng/mL
oral, QG group (oral QG 50 mg/kg), 30 min, individual rats NO. 1-5, read-out: Plasma concentrations
  concentration at 30 min: 0 ng/mL
oral, Qr group (oral Qr 50 mg/kg), 240 min, individual rats NO. 1-5, read-out: Plasma concentrations
  concentration at 240 min: 2590 ng/mL
IQ group (oral IQ 50 mg/kg), labelled substance = analyte, individual rats No1-No5
  Tmax: 0.5 h
IQ group (oral IQ 50 mg/kg), labelled substance = analyte, mean of 5 rats, read-out: AUC(0-t) (converted)
  AUC(0-t): 36900 ng·h/mL
[1]
  CL/F: 24 mL/min/kg
  Cmax: 6600 ng/mL
  Tmax: 0.7 h
  half-life: 6.31 h
IQ group (oral IQ 50 mg/kg), labelled substance = analyte, mean of 5 rats, read-out: MRT(0-t) (converted)
  MRT last: 7.04 h
IQ group: oral IQ 50 mg/kg, mean ± SD, n = 5, read-out: AUC0−t (converted)
  AUC(0-t): 36900 ng·h/mL
[2]
  Cmax: 6600 ± 2670 ng/mL
  Tmax: 0.7 h
  half-life: 6.31 ± 5.65 h
IQ group: oral IQ 50 mg/kg, mean ± SD, n = 5, read-out: MRT0−t (converted)
  MRT last: 7.04 h
QG group (oral QG 50 mg/kg), labelled substance = analyte, individual rats No1-No5
  Tmax: 4 h
QG group (oral QG 50 mg/kg), labelled substance = analyte, mean of 5 rats, read-out: AUC(0-t) (converted)
  AUC(0-t): 58400 ng·h/mL
[3]
  CL/F: 14 mL/min/kg
  Cmax: 5170 ng/mL
  Tmax: 6 h
  half-life: 6.09 h
QG group: oral QG 50 mg/kg, mean ± SD, n = 5, read-out: AUC0−t (converted)
  AUC(0-t): 58400 ng·h/mL
[4]
  Cmax: 5170 ± 1850 ng/mL
  Tmax: 6 h
  half-life: 6.09 ± 2.53 h
Qr group (oral Qr 50 mg/kg), labelled substance = analyte, individual rats No1-No5, read-out: MRT(0-t) (converted)
  MRT last: 6.33 h
Qr group (oral Qr 50 mg/kg), labelled substance = analyte, individual rats No1-No5
  half-life: 7.67 h
Qr group (oral Qr 50 mg/kg), labelled substance = analyte, mean of 5 rats, read-out: AUC(0-t) (converted)
  AUC(0-t): 43200 ng·h/mL
[5]
  CL/F: 20 mL/min/kg
  Cmax: 7470 ng/mL
  Tmax: 0.9 h
  half-life: 7.29 h
Qr group: oral Qr 50 mg/kg, mean ± SD, n = 5, read-out: AUC0−t (converted)
  AUC(0-t): 43200 ng·h/mL
[6]
  Cmax: 7470 ± 2630 ng/mL
  Tmax: 0.9 h
  half-life: 7.29 ± 0.905 h
